Assays:
[1] = HPLC analysis of MbA bread extracts (integrity of MbA after baking); type: physicochemical; conditions: MbA baked in bread to an internal temperature of 100° C., methanol extract; control = MbA added after baking (MbA*)
Protocol: MbA was added as a primary ingredient to a standard bread recipe and to evaluate the integrity of the additive after baking. To this end MbA was added (45 mg) as part of the raw dough (225 g) and separated into 25 g half-servings after kneading. After baking to an internal temperature of 100° C., the samples were extracted with methanol and subject to HPLC and kinetic analysis. In parallel, control samples containing no MbA (MbA−) or MbA added after baking (MbA*) were assessed in an analogous manner.
Two approximately 225 g batches of bread were prepared, one containing MbA the other with no MbA. For each batch: • 1. 5 mL of yeast was activated by mixing with 62.5 mL 43.3° C. water and ¼ tsp sucrose then incubated on the bench top for 10 min. • 2. ½ cup of all-purpose flour was mixed with ½ cup whole-wheat flour and ⅛ tsp NaCl (and 45 mg* MbA for the MbA+ batch only). *The target MbA concentration was 10 mg per serving of bread:
[formula] • 3. The flour mixture was combined with the activated yeast mixture and 25 mL room temperature water then stirred until a dough formed. • 4. Dough kneaded for 10 min by hand. • 5. Dough was rested at room temperature for 30 min. • 6. […]
100 μL of each bread extract was injected on HPLC as described above. MbA was quantified by integrating the MbA on the HPLC trace to standard curve of known MbA amounts.

[2] = molecular target: T1, human pancreatic α-amylase (HPA) (Homo sapiens, UniProt P04746); assay: HPA inhibition IC50 assay with colorimetric substrate CNPG3; type: biochemical; conditions: following standard bread production processes
T1 sequence (P04746 16-511): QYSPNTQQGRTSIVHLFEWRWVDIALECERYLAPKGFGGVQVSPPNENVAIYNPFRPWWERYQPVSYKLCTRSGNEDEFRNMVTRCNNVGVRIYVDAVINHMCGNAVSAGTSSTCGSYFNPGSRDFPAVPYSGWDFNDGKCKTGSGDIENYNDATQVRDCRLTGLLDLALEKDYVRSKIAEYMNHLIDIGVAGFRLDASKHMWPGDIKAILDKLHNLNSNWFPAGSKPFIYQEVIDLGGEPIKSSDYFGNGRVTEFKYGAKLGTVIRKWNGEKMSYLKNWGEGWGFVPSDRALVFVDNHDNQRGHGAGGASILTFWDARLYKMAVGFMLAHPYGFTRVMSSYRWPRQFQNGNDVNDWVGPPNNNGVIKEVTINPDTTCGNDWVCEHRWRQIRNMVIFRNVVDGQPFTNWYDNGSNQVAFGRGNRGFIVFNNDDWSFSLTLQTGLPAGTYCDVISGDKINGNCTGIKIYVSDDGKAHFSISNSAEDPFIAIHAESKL
Protocol: MbA inhibits the activity of human pancreatic α-amylase (HPA). To determine whether and to what extent the prepared bread extract inhibits HPA, enzymatic assays were performed with the colorimetric substrate 2-chloro-4-nitrophenyl-[…] (CNPG3).
HPA inhibition activity of the bread prepared as described above was determined by monitoring CNPG3 concentration. 20 μL of 200, 100, 40, 20 or 8 mM CNPG3 were combined with 170 μL buffer (50 mM phosphate pH 7.0, 100 mM NaCl) in quartz cuvettes and placed in a CARYXXX UV/Vis spectrophotometer. • 2. To each of the five cuvettes, 10 μL of HPA solution was rapidly added to the 190 μL buffered substrate solution. • 3. Spectrophotometer was set to continuously measure absorbance at 400 nm over 5 min. • 4. […] Rates were calculated from t=1 to t=3 (Δ400 nm/min), plotted against CNPG3 concentration and fit with the Michaelis-Menten equation.
20 μL of 40 mM CNPG was combined with 150 μL buffer and 20 μL MbA− or MbA+ bread extract (either ×100 or ×1000 diluted with water). […] Spectrophotometer was set to continuously measure absorbance at 400 nm over 5 min. • 4. Rates were calculated from t=1 to t=3 (Δ400 nm/min), plotted on a bar graph.
Three sets of bread extractions were done to measure IC50: • A. Bread baked with MbA (MbA+) • B. Bread baked without MbA (MbA−) • C. […] IC50s were measured using the HPA/CNPG3 assay described above: • 1. […]

CC1O[C@@H](O[C@@H]2CO[C@@H](Oc3c(O)cc(-c4oc5cc(O)cc(O)c5c(=O)c4O[C@@H]4OC(C)[C@H](O)[C@H](O)C4O[C@@H]4OC(COC(=O)/C=C/c5ccc(O)c(O)c5)[C@@H](O)[C@@H](O)C4O[C@@H]4OC(CO)[C@@H](O)[C@@H](O)C4O)cc3O)C(O)[C@@H]2O)C(O)[C@@H](O)[C@H]1O (some centres unmarked) [MbA, Montbretin A]
MbA intact relative to control (HPLC traces) [1]: 84% | activity retained relative to the unbaked controls (MbA*) [2]: greater than 80%

Reference: patent US20230405035A1, “MONTBRETIN A FUNCTIONAL FOOD” (THE UNIVERSITY OF BRITISH COLUMBIA, priority 2020, published 2023)
